Experimental findings from patent US20220306640A1, “HYDANTOIN DERIVATIVE” (ONO PHARMACEUTICAL CO., LTD., priority 2019, published 2022) are described below.

For test [1], the target named is T1, DDR1 (Homo sapiens, UniProt Q08345).
T1 construct: purchased Invitrogen
Description: Measurement of DDR1 inhibitory activity (LanthaScreen system, in vitro test). Format: binding. Particulars: GST-DDR1, Kinase tracer 178. The protocol: Biological Experiment Example 1: Measurement of an DDR1 Inhibitory Activity (In Vitro Test)
An DDR1 enzyme inhibitory activity was measured by using LanthaScreen (registered trademark) system (Invitrogen) based on the attached instruction. The reagents used are shown below.
Assay buffer: 5× Kinase buffer A (Invitrogen) was diluted 5-fold with ddH2O.
1× Kinase Buffer A: 50 mmol/L HEPES pH 7.5, 10 mmol/L MgCl2, 1 mmol/L EGTA, 0.01% Brij-35.
2×DDR1 Solution: a solution containing […] GST-DDR1 (Invitrogen) was prepared by using Assay buffer.
2× Tracer/antibody solution: a solution containing 20 nmol/L Kinase tracer 178 (Invitorgen) and […] Eu-Anti-GST Antibody (Invitorogen) was prepared by using Assay buffer. Test compound solution: a solution containing a test compound of 2-fold concentration with respect to the final concentration was prepared by 50-fold diluting a DMSO solution of test compound of each concentration with the Assay buffer.
• 1 Add 5 μL 2×DDR1 Solution to proxiplate (PerkinElmer) • 2 Add 5 μL test compound solution to proxiplate • 3 Incubate for 15 min at RT • 4 Add 5 μL 2× Tracer/Antibody solution to all well Incubate 1 h at RT • 6 Read LANCE Eu on Envision (PerkinElmer) (Ex: 320 nm/Em 665 nm & 615 nm)
In the low control group, 5 μL Assay buffer was added instead of 5 μL 2×DDR1 Solution and the final 1% DMSO solution was added instead of test compound solution.
In the high control group, the final 1% DMSO solution was added instead of test compound solution.
(§1) The inhibition rate (%) in the test compound group was calculated based on the following mathematical formula.
% inhibition=100−100*(assay value of test compound−A)/(B−A) [Math. 1]
A: average value of low control group B: average value of high control group
Values of 50% inhibition rate (IC50 values) of the test compound were calculated from the inhibition curve based on the inhibition rate of the test compounds in each concentration.

Test [2] has as its target T2, DDR1 phosphorylation in T-47D (ATCC, HTB-133) cells (Homo sapiens, UniProt Q08345).
T2 construct: host or cells: T-47D
Description: Measurement of DDR1 phosphorylation suppression rate by using T-47D cells (p-DDR1 ELISA). Format: cell-based. Particulars: collagen Type I 10 μg/ml, p-DDR1 (panTyr) ELISA. The protocol:
Biological Example 2: Measurement of DDR1 Phosphorylation Suppression Rate by Using T-47D (ATCC, HTB-133) cells
T-47D cells should be in culture for at least 7 days before using in the assay.
Cell culture medium: RPMI 1640 (HyClone) containing 10% Heat-FBS (HyClone) was prepared.
Assay medium: RPMI 1640 containing 0.1% BSA (solarbio) was prepared.
Collagen Type I (rat tail) solution: Assay medium containing 200 μg/mL Collagen I, rat tail (Gibco) was prepared.
Cell lysis buffer: a solution containing IX cell lysis buffer (CST) and 1× protease and phosphatase inhibitor cocktail (Thermofisher) was prepared by using ddH2O.
• 1. Collect cells into tubes and centrifuge at 1200 rpm for 5 min, at room temperature. Re-suspend the cells in cell culture medium pre-warmed to room temperature. • 2. Count cells and suspend at a density of 2×10^5/ml of cell culture medium. Plate the cells at 100 μL per well (Corning 3599 96-well plate, 2×10^4 cells per well final), mixing the cells well between each draw of the pipettor. • 3. Put lid on cell plate and place into the incubator at 37° C., 5% CO2 • 4. Culture cell overnight
• 1. Remove the plate from the incubator • 2. Cell medium is replaced with the 90 μL Assay medium.
• 1. Compound plates are pre-titrated using DMSO (10-fold dilution for 6 points) • 2. Dilute test compound using assay medium; Transfer 1 μL compound to other 96 well plate and then add 49 μL assay medium to each well (50 fold dilution). • 3. Add 5 μL the diluted test compound solution to the appropriate wells by pipettor. Compound final concentration is start from […] and DMSO final concentration is 0.1 • 4. Tap the plates gently to mix in compound. Reseal the plate with a lid and place in the incubator again, for 24 h.
• 1. Diluted collagen Type I in assay medium to the 200 μg/ml concentration • 2. Using the pipettor adds 5 μL of 200 μg/mL collagen Type I solution to the cell plate (compound well and High control well, collagen final conc. is 10 μg/ml). Add assay medium buffer to the control wells (low control well) • 3. Reseal the plate with a lid and place in the incubator. Incubate 24 h for collagen type I
• 1. After incubation, add 100 µL per well Cell lysis buffer. • 2. Incubate 30 min on ice, then freezing to −80° C. to get the fully cell lysates. • 3. Transfer cell lysates to new plate • 4. Centrifuge for 30 min (×4000 rpm) at 4° C. Then transfer the supernatant to a new plate.
p-DDR1 (panTyr) ELISA kit (CST) was used in the study. The measurement was carried out according to the attached instruction.
as §1
% inhibition=100−100*(assay value of test compound−A)/(B−A) [Math. 2]
A: average value of low control group B: average value of high control group Values of 50% inhibition rate (IC50 values) of the test compound were calculated from the inhibition curve based on the inhibition rate of the test compounds in each concentration.

In test [3] the target is KDR (Homo sapiens, UniProt P35968). Nature of the test: Evaluation of kinase selectivity: % inhibition rate of KDR at 1 μmol/L. Format: biochemical. Particulars: compound at 1 μmol/L. On the procedure:
(§2) Biological Example 3: Evaluation of Kinase Selectivity
(§3) % inhibition rate with respect to various kinases (for example KDR etc.) of 1 μmol/L the test compound is measured.
(§4) A general assay condition (substrates, cofactor, ATP concentrations and reaction time etc.) suitable for respective kinase enzyme inhibition activity test is used.
(§5) 1 Prepare the test compounds into 1 mmol/L DMSO solution. 2 Transfer 20 nL of stock to 384 assay plate. Use DMSO as High and Low controls.
(§6) 1 Prepare the 1.3× Enzyme solution containing enzyme, substrate and cofactors. 2 Add 15 μL of 1.3× Enzyme solutions to each well and incubate the plate at room temperature for 30 min. 3 Initiate the reaction by adding 5 μL of 4×ATP solution. The final volume of each well should be 20 μL. 4 Incubate the plate at room temperature for reaction and add 75 μL of stopping buffer (containing 0.5 mol/L EDTA) to terminate the reaction.
(§7) Analyze the sample of each well using EZ reader (PerkinElmer).
(§8) Calculate the % Inhibition using read conversion ratio (CR) following the equation as below.
(§9) Use well treated with DMSO as High Control Use well without enzyme as Low Control

Test [4] has as its target T3, Flt-3 (Homo sapiens, UniProt P36888).
T3 sequence (P36888 27-993): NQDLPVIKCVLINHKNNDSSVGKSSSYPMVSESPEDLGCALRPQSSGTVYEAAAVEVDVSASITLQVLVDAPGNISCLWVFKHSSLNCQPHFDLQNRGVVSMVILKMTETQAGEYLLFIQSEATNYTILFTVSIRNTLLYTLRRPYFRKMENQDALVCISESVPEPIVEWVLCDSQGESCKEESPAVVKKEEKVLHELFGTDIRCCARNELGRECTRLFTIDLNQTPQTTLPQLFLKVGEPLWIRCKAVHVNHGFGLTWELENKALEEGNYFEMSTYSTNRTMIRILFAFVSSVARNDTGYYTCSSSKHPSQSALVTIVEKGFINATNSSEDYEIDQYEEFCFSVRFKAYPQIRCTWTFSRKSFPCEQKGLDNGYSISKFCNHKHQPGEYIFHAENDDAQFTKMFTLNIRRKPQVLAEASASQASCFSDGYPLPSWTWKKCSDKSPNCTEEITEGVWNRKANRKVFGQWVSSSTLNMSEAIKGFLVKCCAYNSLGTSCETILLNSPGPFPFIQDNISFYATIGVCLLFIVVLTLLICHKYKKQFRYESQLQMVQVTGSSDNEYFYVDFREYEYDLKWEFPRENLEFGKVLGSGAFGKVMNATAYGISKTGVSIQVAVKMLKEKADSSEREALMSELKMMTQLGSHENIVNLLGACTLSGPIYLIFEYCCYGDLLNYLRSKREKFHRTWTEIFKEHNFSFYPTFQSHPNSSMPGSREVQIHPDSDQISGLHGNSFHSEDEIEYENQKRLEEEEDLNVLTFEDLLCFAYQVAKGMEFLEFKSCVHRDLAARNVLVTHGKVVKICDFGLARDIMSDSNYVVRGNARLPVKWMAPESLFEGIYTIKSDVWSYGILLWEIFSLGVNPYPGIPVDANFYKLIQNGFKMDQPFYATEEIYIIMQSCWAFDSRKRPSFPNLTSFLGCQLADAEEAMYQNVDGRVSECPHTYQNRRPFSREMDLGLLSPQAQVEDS
Description: Evaluation of kinase selectivity: % inhibition rate of Flt-3 at 1 μmol/L. Format: biochemical. Particulars: compound at 1 μmol/L. The protocol: as §2, §3, §4, §5, §6, §7, §8, §9

Test [5] concerns the target ROCK (Homo sapiens, UniProt O75116). Nature of the test: Evaluation of kinase selectivity: % inhibition rate of ROCK at 1 μmol/L. The format is biochemical. Particulars: compound at 1 μmol/L; read-out: % inhibition rate of ROCK2. The protocol:
as §2, §3, §4, §5, §6, §7, §8, §9

pIC50: −log10 of the molar value.

Sequence of KDR (P35968 20-1356, species assumed): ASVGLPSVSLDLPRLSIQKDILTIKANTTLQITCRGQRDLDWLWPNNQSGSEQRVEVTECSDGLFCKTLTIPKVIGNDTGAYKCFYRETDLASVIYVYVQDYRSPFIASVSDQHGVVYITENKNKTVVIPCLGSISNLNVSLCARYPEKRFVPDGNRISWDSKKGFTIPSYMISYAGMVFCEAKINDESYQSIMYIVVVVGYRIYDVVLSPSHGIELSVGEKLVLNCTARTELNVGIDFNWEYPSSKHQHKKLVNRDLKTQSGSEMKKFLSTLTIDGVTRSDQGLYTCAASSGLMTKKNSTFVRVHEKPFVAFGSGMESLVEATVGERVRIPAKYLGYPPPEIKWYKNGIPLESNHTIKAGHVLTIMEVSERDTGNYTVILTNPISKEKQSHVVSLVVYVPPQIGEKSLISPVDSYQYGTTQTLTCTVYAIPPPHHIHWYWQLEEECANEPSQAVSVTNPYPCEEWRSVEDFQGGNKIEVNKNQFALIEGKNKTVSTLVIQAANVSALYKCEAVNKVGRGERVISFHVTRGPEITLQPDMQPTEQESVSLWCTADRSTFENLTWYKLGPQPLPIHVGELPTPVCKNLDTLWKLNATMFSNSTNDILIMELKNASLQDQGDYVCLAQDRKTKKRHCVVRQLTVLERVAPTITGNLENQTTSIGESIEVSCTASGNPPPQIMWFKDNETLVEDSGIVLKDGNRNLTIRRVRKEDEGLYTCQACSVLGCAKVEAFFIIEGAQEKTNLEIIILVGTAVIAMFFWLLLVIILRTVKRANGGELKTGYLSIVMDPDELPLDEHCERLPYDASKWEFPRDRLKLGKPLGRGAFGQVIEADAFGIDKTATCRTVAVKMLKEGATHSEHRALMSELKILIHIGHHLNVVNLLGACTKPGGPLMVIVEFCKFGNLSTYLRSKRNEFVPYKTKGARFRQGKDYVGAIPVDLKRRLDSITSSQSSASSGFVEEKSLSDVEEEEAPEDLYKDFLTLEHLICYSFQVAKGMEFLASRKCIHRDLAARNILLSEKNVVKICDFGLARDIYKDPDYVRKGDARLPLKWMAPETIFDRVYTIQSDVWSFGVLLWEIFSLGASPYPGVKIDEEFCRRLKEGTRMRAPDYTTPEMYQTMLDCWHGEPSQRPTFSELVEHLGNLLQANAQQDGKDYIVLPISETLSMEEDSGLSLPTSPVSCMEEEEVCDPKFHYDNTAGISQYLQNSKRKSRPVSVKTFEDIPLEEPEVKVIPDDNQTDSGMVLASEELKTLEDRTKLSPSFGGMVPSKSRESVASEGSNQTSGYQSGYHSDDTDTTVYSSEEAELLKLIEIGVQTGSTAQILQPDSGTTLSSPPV
T1 sequence (Q08345 19-913): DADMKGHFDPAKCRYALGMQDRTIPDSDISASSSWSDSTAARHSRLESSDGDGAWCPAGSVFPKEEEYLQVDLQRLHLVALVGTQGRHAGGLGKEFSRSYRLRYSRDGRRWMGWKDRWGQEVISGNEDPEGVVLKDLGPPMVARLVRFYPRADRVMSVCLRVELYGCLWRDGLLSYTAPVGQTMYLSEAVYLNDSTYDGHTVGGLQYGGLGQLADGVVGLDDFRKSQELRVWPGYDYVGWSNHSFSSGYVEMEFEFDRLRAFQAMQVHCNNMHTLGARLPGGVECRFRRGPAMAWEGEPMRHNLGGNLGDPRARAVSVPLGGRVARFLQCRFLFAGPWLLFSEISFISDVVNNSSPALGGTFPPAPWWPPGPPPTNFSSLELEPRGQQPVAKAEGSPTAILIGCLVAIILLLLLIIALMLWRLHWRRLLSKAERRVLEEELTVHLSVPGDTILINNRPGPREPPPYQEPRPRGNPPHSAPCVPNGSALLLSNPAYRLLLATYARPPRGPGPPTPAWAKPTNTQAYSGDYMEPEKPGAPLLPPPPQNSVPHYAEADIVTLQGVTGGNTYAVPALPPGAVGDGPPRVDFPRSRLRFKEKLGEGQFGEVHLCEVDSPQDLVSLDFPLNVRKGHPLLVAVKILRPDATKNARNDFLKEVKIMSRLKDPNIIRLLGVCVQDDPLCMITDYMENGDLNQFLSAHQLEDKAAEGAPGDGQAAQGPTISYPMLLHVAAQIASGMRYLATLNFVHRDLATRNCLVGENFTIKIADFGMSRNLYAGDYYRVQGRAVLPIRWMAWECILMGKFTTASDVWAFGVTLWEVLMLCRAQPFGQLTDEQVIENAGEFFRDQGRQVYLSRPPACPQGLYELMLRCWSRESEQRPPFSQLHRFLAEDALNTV
T2 sequence (Q08345 19-913): as above
Sequence of ROCK (O75116 whole entry): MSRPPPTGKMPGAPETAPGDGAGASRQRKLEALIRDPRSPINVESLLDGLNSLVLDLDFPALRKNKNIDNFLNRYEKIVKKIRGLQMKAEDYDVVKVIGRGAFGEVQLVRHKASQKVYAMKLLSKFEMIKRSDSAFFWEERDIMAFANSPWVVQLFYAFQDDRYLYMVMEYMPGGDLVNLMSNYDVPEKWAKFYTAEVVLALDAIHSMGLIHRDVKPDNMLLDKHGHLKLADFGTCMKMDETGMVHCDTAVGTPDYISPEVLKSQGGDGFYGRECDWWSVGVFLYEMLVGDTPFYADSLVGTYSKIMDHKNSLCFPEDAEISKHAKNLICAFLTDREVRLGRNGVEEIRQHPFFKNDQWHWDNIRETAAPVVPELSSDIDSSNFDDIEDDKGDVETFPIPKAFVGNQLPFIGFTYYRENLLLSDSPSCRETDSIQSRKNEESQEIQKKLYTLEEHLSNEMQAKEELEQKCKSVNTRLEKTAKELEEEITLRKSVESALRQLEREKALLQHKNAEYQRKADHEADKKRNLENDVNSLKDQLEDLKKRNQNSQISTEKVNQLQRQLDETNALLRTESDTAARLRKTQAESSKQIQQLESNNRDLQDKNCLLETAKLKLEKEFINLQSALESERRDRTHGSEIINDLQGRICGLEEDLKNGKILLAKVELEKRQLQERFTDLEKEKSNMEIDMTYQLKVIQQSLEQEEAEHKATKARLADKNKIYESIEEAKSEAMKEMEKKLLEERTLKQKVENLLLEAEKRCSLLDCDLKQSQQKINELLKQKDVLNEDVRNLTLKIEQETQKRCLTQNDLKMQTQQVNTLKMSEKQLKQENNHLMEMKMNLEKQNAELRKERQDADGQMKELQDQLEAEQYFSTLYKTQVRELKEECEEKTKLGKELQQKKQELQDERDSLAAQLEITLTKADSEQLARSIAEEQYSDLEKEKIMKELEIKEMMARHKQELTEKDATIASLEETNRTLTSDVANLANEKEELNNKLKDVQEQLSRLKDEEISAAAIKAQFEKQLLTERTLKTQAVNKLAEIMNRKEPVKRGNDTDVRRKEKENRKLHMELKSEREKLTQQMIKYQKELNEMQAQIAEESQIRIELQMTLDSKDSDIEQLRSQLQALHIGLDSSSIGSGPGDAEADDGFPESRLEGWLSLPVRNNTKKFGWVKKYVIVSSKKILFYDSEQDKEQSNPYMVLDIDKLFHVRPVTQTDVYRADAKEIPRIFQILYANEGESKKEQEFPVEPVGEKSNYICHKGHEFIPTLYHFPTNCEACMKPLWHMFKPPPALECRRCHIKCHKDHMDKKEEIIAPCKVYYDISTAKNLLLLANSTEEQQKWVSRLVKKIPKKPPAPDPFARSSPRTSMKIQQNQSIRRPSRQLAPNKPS

Take `O=C1CN(c2cncc(C(F)(F)F)c2)C(=O)N1c1ccc(Oc2cnc3[nH]ncc3c2)cc1` [Example 1(11), 3-[4-(1H-pyrazolo[3,4-b]pyridin-5-yloxy)phenyl]-1-[5-(trifluoromethyl)-3-pyridinyl]-2,4-imidazolidinedione]: the pIC50 in test [1] and in test [2] was 9.00 in each case. The inhibition at 1 µM in test [3] was 2%; in test [4] it was 16%; in test [5], -2%.

On to `Cc1cc(Oc2ccnc(N)n2)ccc1N1C(=O)CN(c2cncc(C(F)(F)F)c2)C1=O` [Example 2, 3-{4-[(2-amino-4-pyrimidinyl)oxy]-2-methylphenyl}-1-[5-(trifluoromethyl)-3-pyridinyl]-2,4-imidazolidinedione], for which the results for the pIC50 in test [1] and in test [2] were 8.30 and 8.52, respectively. The inhibition at 1 µM in test [3] is 1%; in test [4] it was 4%; in test [5] it was -5%.

With `O=C1CN(c2cncc(C(F)(F)F)c2)C(=O)N1C12CCC(Oc3ncnc4[nH]ccc34)(CC1)C2` [Example 3(65), 3-[4-(7H-pyrrolo[2,3-d]pyrimidin-4-yloxy)bicyclo[2.2.1]hept-1-yl]-1-[5-(trifluoromethyl)-3-pyridinyl]-2,4-imidazolidinedione], the negative-log IC50 (pIC50) in test [1] was 8.52; in test [2], 8.70. Moreover, the inhibition at 1 µM was -1% in test [3], 5% in test [4] and 5% in test [5].

Molecule `O=C1CN(c2cncc(C(F)(F)F)c2)C(=O)N1C12CCC(Oc3ncnc4[nH]cc(F)c34)(CC1)C2` [Example 42(1), 3-{4-[(5-fluoro-7H-pyrrolo[2,3-d]pyrimidin-4-yl)oxy]bicyclo[2.2.1]hept-1-yl}-1-[5-(trifluoromethyl)-3-pyridinyl]-2,4-imidazolidinedione] gave a pIC50 in test [2] of 8.10. For the same molecule, the results for the inhibition at 1 µM in test [3], in test [4] and in test [5] were -3%, -2% and -8%, respectively.
